# PMC9374667 (Communications Biology, 2022)
# Values joined by “and” are separate entries in the source; they are usually repeats but may differ in a detail not shown here. Equal values may be shown once.
# Legend:
# db/db mice [1] = test: Insulin tolerance test (ITT), AUC and initial slope; format: in vivo; design: blood glucose AUC: unit not given here; conditions: BBR 150mg/kg; for blood glucose level: in mmol/L (unit assumed)
# Procedure: (§1) Mice were fasted for 4 h for insulin resistance test and intraperitoneally injected with 1 unit/kg of insulin. Blood glucose levels were measured from the tail vein blood at 0, 15, 30, 45, 60, 90, and 120 min after injection. Plasma insulin levels were measured using an ultrasensitive mouse insulin ELISA kit (Nanjing Jiancheng Bioengineering Institute, Nanjing, China).
# db/db mice [2] = test: Fasting serum insulin levels (ELISA); format: in vivo; design: insulin level (Figure 5b): unit not given here; conditions: db/db mice
# Procedure: as §1
# [3] = In vitro dissolution studies: dynamic solubility in buffers and simulated biological fluids; format: physicochemical; design: BBR dissolved in CMC-Na (Figure S7a) / Ibu dissolved in CMC-Na (Figure S7b): unit not given here; conditions: mean; for solubility at 0.5 h / solubility at 1 h / solubility at 2 h / solubility at 24 h: 37 °C
# Procedure: (§2) Solubilities were determined by adding excess sample to 30 mL different mediums, such as HCl solution, acetate buffer, phosphate buffer, SGF, FaSSIF and FeSSIF. The configuration of various buffer solutions is shown in Supplementary Table 2. After being shaken at 400 rpm at 37 °C for 0.5, 1, 2, and 24 h, 0.3 mL of suspension was sampled and centrifuged at 14,000 rpm for 8 min to isolate mother liquor, and then analyzed by HPLC after dilution. All samples were analyzed in triplicate.
# [4] = pH of the solution after 24 hours of the dissolution test; format: physicochemical
# Procedure: as §2, with “triplicate. […]” for “triplicate.”
# into a 1000 mL flask followed by addition of about 800 mL of deionized water. The mixture is stirred until all solids are dissolved.
# Add about 100 mL of 0.1 N HCl, check pH value with a pH meter and adjust the pH to 2.0 with HCl (1 N) or NaOH (1 N). Then dilute to the volume with deionized water.
# * 1N sodium hydroxide: Weigh 8 g NaOH in a 200 mL plastic volumetric flask, add deionized water to volume and mix well. […]
# phosphate and 3.093 g sodium chloride in a 500 mL volumetric flask, add about 0.450 L deionized water, and adjust the pH to 6.5 with 1N sodium hydroxide or 1 N hydrochloric acid. Make up to volume (0.5 […]
# Step 2: Place and dissolve 1.120 g FaSSIF/FeSSIF/FaSSGF instant powder with 0.250 L of buffer (from step 1) in a 500 mL volumetric flask, then add buffer (from step 1) to volume, and mix well. […]
# g sodium chloride in a 500 mL volumetric flask, add about 0.450 L deionized water, and adjust the pH to 5.0 with 1 N sodium hydroxide or 1 N hydrochloric acid. Make up to volume (500 mL) with
# Step 2: Place and dissolve 5.600 g FaSSIF/FeSSIF/FaSSGF instant […]
# 0.750 L deionized water. Make up to volume (1000 mL) with deionized water and placed overnight.
# (1 picture or pasted object on this page, not shown here)
# db/db mice [5] = test: HE staining of epididymal adipose tissue, adipocyte size; format: in vivo
# Procedure: The adipose tissue was fixed overnight in 4% paraformaldehyde, then embedded in paraffin and cut into 5 µm thick slices. Tissue sections were stained with hematoxylin and eosin (H&E). For immunohistochemistry, sections were incubated with primary antibodies against F4/80 (1:100 dilution) diluted in the blocking solution at 4 °C overnight. The tissue sections were then incubated with the horseradish peroxidase (HRP)-conjugated secondary antibody at room temperature for 2 h. Finally, the sections were developed with diaminobenzidine (DAB) and counterstained with hematoxylin. Images were obtained under a microscope. To quantify the F4/80-positive macrophages, two random fields per sample were analyzed by Image J software. The IHC profiler plugin of ImageJ was used to calculate the F4/80 positive area.
# db/db mice [6] = test: Glucose tolerance test (GTT); format: in vivo; design: blood glucose level / blood glucose AUC: unit not given here; conditions: BBR 150mg/kg; for blood glucose level, mean: mean of 10 mice
# [7] = individual mice, time column 1 of 7 (time not printed)
# [8] = individual mice, time column 2 of 7 (time not given)
# [9] = individual mice, time column 3 of 7 (time not given)
# [10] = individual mice, time column 4 of 7 (time not given)
# [11] = individual mice, time column 5 of 7 (time not given)
# [12] = individual mice, time column 6 of 7 (time not given)
# [13] = individual mice, time column 7 of 7 (time not printed)
# [14] = FaSSIF-V1 (fasted state simulated intestinal fluid), thermodynamic from solid, FaSSIF-V1 (pH 6.5)
# [15] = FaSSIF-V1 (fasted state simulated intestinal fluid), FaSSIF-V1 (pH 6.5)
# [16] = FeSSIF-V1 (fed state simulated intestinal fluid), thermodynamic from solid, FeSSIF-V1 (pH 5.0)
# [17] = SGF (simulated gastric fluid), simulated gastric fluid, thermodynamic from solid, SGF (pH 2.0)
# [18] = simulated gastric fluid, thermodynamic from solid, HCl solution (pH 1.0)
smiles,measurement,setting,value
"COc1ccc2cc3[n+](cc2c1OC)CCc1cc2c(cc1-3)OCO2 [BBR, Berberine chloride dihydrate]",blood glucose level,db/db mice [1]; [7],19.2 and 16.4 and 9.2 and 15.3 and 9.5 and 19.6 and 19.0 and 21.8 and 10.2
same,blood glucose level,db/db mice [1]; [8],18.1 and 16.0 and 9.1 and 15.7 and 11.1 and 18.6 and 18.3 and 22.5 and 13.5
same,blood glucose level,db/db mice [1]; [9],14.4 and 12.6 and 7.4 and 12.2 and 7.9 and 18.7 and 13.6 and 19.0 and 15.5 and 10.0
same,blood glucose level,db/db mice [1]; [10],12.3 and 9.3 and 4.0 and 8.5 and 6.8 and 15.1 and 11.8 and 17.7 and 13.7 and 6.9
same,blood glucose level,db/db mice [1]; [11],10.3 and 9.1 and 4.5 and 8.8 and 7.2 and 13.0 and 10.2 and 17.4 and 10.8 and 7.5
same,blood glucose level,db/db mice [1]; [12],11.7 and 9.8 and 3.9 and 8.9 and 7.6 and 15.8 and 11.2 and 20.0 and 12.2 and 8.2
same,blood glucose level,db/db mice [1]; [13],11.0 and 10.0 and 4.1 and 9.3 and 6.7 and 17.4 and 10.3 and 19.0 and 11.5 and 7.3
same,blood glucose AUC,"db/db mice [1]; Figure 5f, individual mice",948.75 and 1960.5 and 1518 and 2328 and 1638 and 1056.75 and 1563.75 and 1340.25 and 656.25 and 1265.25
same,Initial Slope,"db/db mice [1]; db/db mice, individual animals (Figure S10a)",-0.0533 mmol/L/min and -0.03 mmol/L/min and -0.18 mmol/L/min and -0.0933 mmol/L/min and -0.1367 mmol/L/min and -0.0067 mmol/L/min and -0.16 mmol/L/min and -0.1267 mmol/L/min and -0.06 mmol/L/min and -0.1033 mmol/L/min
same,insulin level (Figure 5b),"db/db mice [2]; BBR 150mg/kg, fasting serum, individual mice 1-6",14.8249 and 14.5179 and 14.1979 and 10.7342 and 12.3345 and 12.7422
same,Fasting serum insulin levels,"db/db mice [2]; 150 mg/kg, 35 days of treatment, vs vehicle",did not produce significant effects
same,solubility at 0.5 h,[3]; Acetate buffer (pH 4.5),2080 µg/mL
same,solubility at 1 h,[3]; Acetate buffer (pH 4.5),2070 µg/mL
same,solubility at 2 h,[3]; Acetate buffer (pH 4.5),1540 µg/mL
same,solubility at 24 h,[3]; Acetate buffer (pH 4.5),1540 µg/mL
same,BBR dissolved in CMC-Na (Figure S7a),[3]; time 0.5,1.991
same,BBR dissolved in CMC-Na (Figure S7a),[3]; time 1,2.188
same,BBR dissolved in CMC-Na (Figure S7a),[3]; time 2,2.102
same,BBR dissolved in CMC-Na (Figure S7a),[3]; time 24,2.4551
same,solubility at 0.5 h,[3]; [14],151 µg/mL
same,solubility at 24 h,[3]; [14],64.1 µg/mL
same,solubility at 1 h,[3]; [15],126 µg/mL
same,solubility at 2 h,[3]; [15],87.2 µg/mL
same,solubility at 0.5 h,[3]; [16],137 µg/mL
same,solubility at 2 h,[3]; [16],73.3 µg/mL
same,solubility at 24 h,[3]; [16],63.1 µg/mL
same,solubility at 1 h,"[3]; FeSSIF-V1 (fed state simulated intestinal fluid), FeSSIF-V1 (pH 5.0)",107 µg/mL
same,solubility at 2 h,[3]; HCl solution (pH 1.0),106 µg/mL
same,solubility at 24 h,[3]; HCl solution (pH 1.0),81.1 µg/mL
same,solubility at 0.5 h,[3]; Phosphate buffer (pH 6.8),2290 µg/mL
same,solubility at 1 h,[3]; Phosphate buffer (pH 6.8),2380 µg/mL
same,solubility at 2 h,[3]; Phosphate buffer (pH 6.8),1790 µg/mL
same,solubility at 24 h,[3]; Phosphate buffer (pH 6.8),1950 µg/mL
same,solubility at 0.5 h,[3]; [17],172 µg/mL
same,solubility at 1 h,[3]; [17],175 µg/mL
same,solubility at 2 h,[3]; [17],140 µg/mL
same,solubility at 24 h,"[3]; SGF (simulated gastric fluid), SGF (pH 2.0)",110 µg/mL
same,solubility at 0.5 h,[3]; [18],137 µg/mL
same,solubility at 1 h,[3]; [18],146 µg/mL
same,pH of the solution after 24 hours,"[4]; Acetate buffer, blank vehicle 4.54",4.57
same,pH of the solution after 24 hours,"[4]; CMC-Na, blank vehicle 6.51",6.20
same,pH of the solution after 24 hours,"[4]; FaSSIF-v1, blank vehicle 6.51",6.54
same,pH of the solution after 24 hours,"[4]; FeSSIF-v1, blank vehicle 5.04",5.03
same,pH of the solution after 24 hours,"[4]; HCl solution, blank vehicle 1.08",1.05
same,pH of the solution after 24 hours,"[4]; Phosphate buffer, blank vehicle 6.84",6.90
same,pH of the solution after 24 hours,"[4]; SGF, blank vehicle 2.03",2.07
same,Cell diameter (adipocyte size of eWAT),"db/db mice [5]; 150 mg/kg, individual cells",112.956 µm and 111.168 µm and 109.684 µm and 107.318 µm and 103.404 µm and 102.799 µm and 102.56 µm and 100.649 µm and 97.9486 µm and 97.2359 µm and 94.5814 µm and 93.4958 µm and 92.5409 µm and 90.4031 µm and 87.905 µm and 126.009 µm and 123.446 µm and 119.401 µm and 113.9 µm and 113.401 µm
same,Size of adipocytes in eWAT compared with vehicle,"db/db mice [5]; BJ 75 and 150 mg/kg, BBR 150 mg/kg, Ibu 150 mg/kg",significantly reduced
same,blood glucose level,db/db mice [6]; [7],16.4 and 13.5 and 14.2 and 17.7 and 15.0 and 13.4 and 16.8
same,blood glucose level,db/db mice [6]; [8],28.7 and 28.8 and 32.6 and 33.3
same,blood glucose level,db/db mice [6]; [9],31.2 and 22.4 and 33.3 and 29.2
same,blood glucose level,db/db mice [6]; [10],27.9 and 29.2 and 23.4 and 32.4 and 30.4
same,blood glucose level,db/db mice [6]; [11],28.4 and 22.4 and 33.3 and 28.6
same,blood glucose level,db/db mice [6]; [12],23.4 and 21.0 and 20.5
same,blood glucose level,db/db mice [6]; [13],17.7 and 16.7 and 22.7 and 19.6 and 20.9
same,"blood glucose level, mean",db/db mice [6]; time column 1 of 7 (time not printed),15 mmol/L
same,"blood glucose level, mean",db/db mice [6]; time column 2 of 7 (time not given),30.7 mmol/L
same,"blood glucose level, mean",db/db mice [6]; time column 3 of 7 (time not given),28.4 mmol/L
same,"blood glucose level, mean",db/db mice [6]; time column 4 of 7 (time not given),27.7 mmol/L
same,"blood glucose level, mean",db/db mice [6]; time column 6 of 7 (time not given),22.6 mmol/L
same,"blood glucose level, mean",db/db mice [6]; time column 7 of 7 (time not printed),20.1 mmol/L
same,blood glucose AUC,"db/db mice [6]; Figure 5d, individual mice",3443.25 and 3088.5 and 2416.5 and 3051.75 and 2479.5 and 3425.25 and 2977.5 and 2793.75 and 3132 and 3001.5
